Test results taken from patent US4665224A, “Ester of (+) 6-methoxy-α-methyl-2-naphthalene acetic acid having mucosecretolytic, anti-inflammatory, analgesic, antipyretic activity, a process for its preparation and pharmaceutical compositions thereof” (priority 1984, dated 1987).

Legend:
[1] = in vivo; settings: mouse, in vivo, po
Experimental: (§1) Method for studying the lethal dose 50 (LD50) in the mouse after a single administration.
(§2) Groups of 10 Swiss albine, female, adult mice (20-22 grams of body weight) fasting from the evening preceding the test, are treated orally with varying doses of the test drup suspended into hydroxyethylcellulose (0.5% w/v.)
(§3) Thereafter, the animals are fed again.

[2] = tested on: mouse; test: in vivo; settings: oral, result in words
Experimental: as §1, §2, §3

[3] = tested on: bronchial mucus; test: Bronchosecretagogue activity, quantitative evaluation of the rabbit bronchial secretion; type: in vivo, rabbit (brown, male); settings: for Percent increase of the bronchial mucus: second 4 h period versus first; for bronchosecretagogue / mucolytic activity: oral, result in words
Text: Method of quantitative evaluation of the rabbit bronchial secretion according to Scuri R. et al. Boll. Chim. Farm. 119, 181-7; 1980.
Adult male brown rabbits (2.8-3.5 kg of body weight) to which a T shaped tracheal cannula is applied by surgical operation, as described in the above cited bibliographic reference, are used.
To the cannula, a container for periodical collection of the bronchial secretion is applied.
The study of mucoproduction, started on the fourth day after the operation, is divided into two periods (of 4 hours each), for collecting and measuring the secreted mucus. The action of the test drug is tested by administering it orally at the beginning of the second period of mucus collection and evaluating the percent increase in the mucus production (as measured gravimetrically) in the second period in comparison with the first period.

[4] = tested on: carrageenin induced oedema; test: Antiphlogistic activity, carrageenin induced oedema; type: in vivo, rat (Wistar albine, female); settings: 3 h; rat, oral, one hour before carrageenin; paw volume at three hours; read-out: ED50 in mg/kg os.
Experimental: Method of the carrageenin induced oedema according to Winter C. A. et al.--proc. Soc. Exp. Biol. Med--111, 544-7, 1962.
Female Wistar albine rats (120-160 grams of body weight) are utilized.
The test drug is administered orally one hour before injection of a carrageenin water suspension into the right hind paw (1%, injected volume […]).
The volume of the injected paw is recorded simultaneously with the carrageenin injection and three hours after the same by a plethysmometer (U. Basile, mod. 7150-Comerio, Varese).

[5] = tested on: phenylquinone abdominal contractions; test: Analgesic activity, method of phenylquinone (abdominal contractions); type: in vivo, mouse (Swiss albine, female); settings: mouse, oral; for ED50: 20 min, 30 minutes before phenylquinone, contractions during 20 minutes, read-out: ED50 in mg/kg os.
Experimental: Female Swiss albine mice (20-25 g), fasting since 2 hours are employed.
The test drug is administered orally 30 minutes before endoperitoneal injection of phenylquinone (0.08 mg/mouse).
The characteristic abdominal contractions are counted individually during a 20 minutes period.

[6] = tested on: yeast induced pyrexia; test: Antipyretic activity, yeast induced pyrexia in the rat; type: in vivo, rat (Wistar albine, female); settings: for ED50: Rattus norvegicus, po, read-out: ED50 in mg/kg os.
Experimental: Method of yeast induced pyrexia in the rat.
Female Wistar albine rats, weighing 100-140 g, are employed. Animals having a rectal basal temperature from 36° to 37° C. are selected.
The testing substances are administered orally simultaneously with the pyretic agent (dry brewer's yeast suspended in water at 20% concentration,administered volume 15 ml/kg, subcutaneously) to groups of 5 animals per dose.
After 4,5,6,7 and 24 hours from the treatment, the rectal temperature of the animals is recorded by an Ellab RM6 probe, connected to an Ellab mod. TE-3 thermometer.
The activity of the drugs is evaluated by utilizing a temperature index which is given by the algebraic sum of the differences in the rectal temperature between the measured values at different times and the basal value.

[7] = tested on: gastric lesions or submucosa hemorrhages; test: Gastric tolerability, gastric ulcerogenesys by repeated drug administrations; type: in vivo, rat (Wistar albine, female); settings: rat, oral for 5 days, result in words
Experimental: Method of gastric ulcerogenesys by repeated drug administrations.
Fed female Wistar albine rats (140-160 g of initial body weight) are used.
The test drug is administered orally for 5 days. At the end of the experiment, the rat's stomach is withdrawn, it is dissected along the lesser curvature, washed and observed in order to disclose the presence of either gastric lesions or manifest submucosa hemorrhages.

[8] = listed as compound of the present invention

Row | Structure (SMILES) | LD50 at 336 h [1] [mg/kg] | acute toxicity [2] | Percent increase of the bronchial mucus ([3]; 600 mg/kg os.) [%] | bronchosecretagogue / mucolytic activity [3, 8] | bronchosecretagogue / mucolytic activity ([3]; listed as ester of formula (I)) | ED50 [4] [mg/kg] | ED50 [5] [mg/kg] | analgesic activity versus (+)6 methoxy-α-methyl-2-naphthalene acetic acid ([5]; result in words) | ED50 [6] [mg/kg] | antipyretic activity ([6]; rat, oral, result in words) | gastric tolerability [7, 8] | gastric tolerability ([7]; listed as ester of formula (I)) | gastric tolerability ([7]; listed as such compound) | Percent increase of the bronchial mucus ([3]; 300 mg/kg os.) [%]
1 | COc1ccc2cc([C@H](C)C(=O)OCC3=CCC(C(C)(C)O)CC3)ccc2c1 (single isomer, unassigned; (+)) [CO/1446] | 4000 | very low acute toxicity | 32 | has bronchosecretagogue activity in the rabbit | marked mucolytic activity of the bronchial secretion | 30 | 3.9 | significantly more active | 30 | good antipyretic activity, though lower than the control | well tolerated by the gastric mucose of the rat | very good gastric tolerability | better tolerated than (+)6-methoxy-α-methyl-2-naphthalene acetic acid | 
2 | COc1ccc2cc([C@H](C)C(=O)O)ccc2c1 [(+)6-methoxy-α-methyl-2-naphthalene acetic acid, reference compound] |  |  |  |  |  | 35 | 18.5 |  | 14 |  |  |  |  | 0
